These results are taken from patent publication US6919374B1, “Viscosity modulating substance and use thereof” (Oklahoma Medical Research Foundation, priority 1999, dated 2005).

“Also recorded” adds a separate entry of the source. Where a SMILES comes first, the peptide text is derived from it.

For series [1] the following is noted: clinical trial; osteo- and mixed osteo- and rheumatoid arthritis; cited from earlier work.
For a further series, the system named is patient blood samples. Briefly: Whole blood viscosity after in vitro addition of APM to patient blood samples. The format is cell-based. Particulars: HgBss patients; samples 480 minutes post-treatment; 1 or 2 milligrams/milliliter APM in vitro. As to the method: (§1) To measure viscosity, 1.01 cc of the test fluid, i.e., either water, saline or blood, was drawn into an RBC pipette using a 50 cc syringe attached via rubber tubing to the top of the RBC pipette. Using a constant pressure of 20 mm by maintaining the pressure with visual feedback and hand pressure, the amount of time it took for the test fluid to drip out of the RBC pipette was measured with a stopwatch. Each measurement was made in triplicate. Changes in viscosity from baseline for patient blood samples were recorded and compared to normal controls.
(§2) Samples with high viscosity readings at 480 minutes or 1,440 minutes post-treatment, chosen to represent patients with a validated response to APM who were returning to normal, were divided and treated with an additional 0, 1, or 2 milligrams/milliliter APM in vitro, in an effort to measure whether a second inducible sickling response was possible and if a second response to the in vitro APM addition could be observed. The viscosity of each sample at 480 minutes post-treatment was measured.

In series [2] the test system is sickle cells in HgBss blood. Briefly: Sickling after in vitro addition of APM to patient blood. The class given is cell-based, patients. Here is the method:
as §2
Using metabisulfite to reduce HbS to the deoxy form (Daland, G. A. and Castle, W. B. 1948. J Lab Clin Med 33:1082-1088; Nelson, D. A. In Todd-Sanford-Davidsohn Clinical Diagnosis by Laboratory Methods, J. B. Henry, ed. (W.B. Saunders Co., Philadelphia, 1979, vol. 1, p. 1020), a baseline sickling test was run on each experimental sample. The sickling inducing agent was prepared fresh daily as follows: 10 milligrams metabisulfite in 1 milliliter isotonic saline. Multiple test slides were prepared for each experimental sample by adding approximately 300 microliters of the metabisulfite inducing agent to 50 microliters of well mixed blood and placing about 4 drops of the experimental sample onto the surface of a glass slide, placing a coverslip over the sample, and sealing the coverslip with a petroleum jelly bead to prevent oxygen from entering the sample. […]

For series [3] the following is noted: with the exception of patients suffering from phenylketonuria; cited from earlier work.
Series [4] concerns whole blood of sickle cell patients. Nature of the series: Whole blood viscosity by RBC pipette method before and after administration of APM to sickle cell patients. Particulars: for blood viscosity after treatment: baseline vs 120 minutes post-treatment, APM 1.5, 3 or 6 mg/kg body weight. The format is in vivo. As to the method: Blood samples were obtained from ten patients having homozygous HgBss disease or heterozygous Hgbsc disease before and after a blinded administration of APM at 1.5 (low dose), 3 (medium dose), or 6 (high dose) milligrams per kilogram body weight.
Viscosity determinations using the RBC pipette method of Wright and Jenkins (1970, Blood 36:516) were made on each blinded whole blood sample before and 120 minutes after blinded administration of APM. Each measurement was made in triplicate. Control viscosity measurements using saline and water for each patient and normal whole blood were also made to validate the viscosity measurements.
as §1

Series [5] deals with red blood cells containing HbS. Particulars: WO 00/18418; cited from earlier work.
In series [6] the test system is sickle cells in HgBss blood. Briefly: Metabisulfite slide test for sickling after APM given orally. The format is in vivo, patients. As to the method:
For comparative purposes, the number of sickle cells relative to the number of normal cells was obtained at 0, 30, 60, 120, 240, 480, and 1440 minutes after administration of APM according to the method given in Example 2.
Blood was drawn before and 120 minutes after treatment with 0, 1.5, 3, or 6 milligrams APM per kilogram body weight in a blinded fashion from the ten patients into heparin tubes, stored in a refrigerator at approximately 10° C. and routinely tested within 36 hours of collection.
Normal blood devoid of abnormal hemoglobin was used as a control. For each heparinized patient blood sample and the normal blood control, experimental samples were prepared containing 0.25 milliliters of normal saline and 0.25 milliliters of blood. […]
To account for natural or non-induced sickling of the experimental samples, a baseline sickling count was obtained for each heparinized patient blood sample and the normal blood control. […] Photomicrographs were taken with a phase contrast microscope at 400 magnification, and the results were obtained from the photomicrographs as the number of sickle cells per 100 cells counted. This number of sickle cells per 100 cells counted was considered the baseline sickling count and was subtracted from the cell counts obtained with the metabisulfite induced samples. […]

Consider `COC(=O)[C@H](Cc1ccccc1)NC(=O)[C@@H](N)CC(=O)O` [APM, N-L-alpha-aspartyl-L-phenylalanine 1-methyl ester] (H-Asp-Phe-OMe), for which, in series [1], the “pain and inflammation of arthritis” value was “alleviate the pain and inflammation”. The “viscosity of blood samples after in vitro APM addition, compared to the control” value with patient blood samples is “decreased; also recorded: reduces”. The “number of sickle cells” value in series [2] and in series [6] was “reduces the number of sickle cells” each time. Also, the safety status entry in series [3] is recorded as “generally regarded as safe”. In addition, the figures for the “blood viscosity after treatment” value in series [4] (HgBss patients) and in series [4] (sbthal patients) were “decreased; also recorded: reduces the viscosity” and “decreased”, respectively. For the same molecule, the whole blood viscosity entry in series [4] (in vivo) is reported as “lowers whole blood viscosity”. Besides, the “viscosity compared against Pirofsky's change in viscosity vs. hematocrit standard” value was “decreased” in series [4] (patients with sickle cell disease (HgBss)) and “increased” in series [4] (patients with sickle cell trait (Hbgsc)). Besides, the “capacity of red blood cells containing HbS to sickle with hypoxemia” value in series [5] was “reduction”.
